Data on two compounds can be found in patent publication US8778954B2, “Phenylpyridine derivative and medicinal agent comprising same” (Kowa Company, Ltd., priority 2009, dated 2014).

pEC50: −log10 of the molar value.

The target in this assay is T1, human PPARγ2 (Homo sapiens, UniProt P37231).
T1 construct: the amino acids 182 to 505 of human PPARγ2; expressed in transfected cells; host or cells: COS7 cells (African green monkey kidney)
T1 sequence (P37231 182-505): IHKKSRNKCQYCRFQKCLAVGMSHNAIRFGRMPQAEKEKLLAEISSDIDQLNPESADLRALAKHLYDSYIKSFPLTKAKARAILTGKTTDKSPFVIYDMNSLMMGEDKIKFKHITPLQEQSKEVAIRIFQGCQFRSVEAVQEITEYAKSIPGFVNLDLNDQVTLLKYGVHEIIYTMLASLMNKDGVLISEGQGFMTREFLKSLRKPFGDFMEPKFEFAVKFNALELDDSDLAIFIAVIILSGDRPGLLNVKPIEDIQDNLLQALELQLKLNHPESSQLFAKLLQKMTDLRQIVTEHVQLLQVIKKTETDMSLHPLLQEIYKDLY
Nature of the assay: PPARγ activation activity, Gal4-PPARγ2 LBD luciferase transfection assay using COS7 cells. In kind it is cell-based. Particulars: Gal4-human PPARγ2 LBD chimera, 16 hours, rosiglitazone = 100%. The method, then:
The agonistic activity of the compounds of the invention on PPARγ was measured based on the transfection assay using COS7 cells (DS Pharma Biomedical Co., Ltd., Osaka, Japan), which are the cell line derived from the kidney of the African green monkey. COS7 cells were cultured under 5% CO2 concentration, and DMEM medium containing 10% fetal bovine serum, glutamic acid, and antibiotics was used as a medium.
As an expression vector, a chimera in which DNA binding domain of Gal4, which is a yeast transcription factor, and ligand binding domain of human PPARγ2 are fused, i.e., a fused product between the amino acids 1 to 147 of Gal4 transcription factor and the amino acids 182 to 505 of human PPARγ2, was used. Furthermore, as a reporter vector, a firefly luciferase containing five copies of Gal4 recognition sequence in the promoter region was used. Plasmid transfection to the cells was performed according to a method which uses jetPEI (trade name, manufactured by Funakoshi Co., Ltd., Tokyo, Japan). Furthermore, β-galactosidase expression vector was employed as an internal standard.
After the transfection of the cells, the medium was replaced with a DMEM medium (containing 1% serum) added with the test compound, and the cells were further cultured for 16 hours. After that, the luciferase activity and β-galactosidase activity in the cell lysis solution were measured.
For the present test, dimethyl sulfoxide (DMSO) was used for dissolution and dilution of the test compounds, and during the cell treatment, the DMSO concentration in DMEM medium (containing 1% serum) was adjusted to 0.1%. As a positive compound, rosiglitazone (trade name, manufactured by ALEXIS Corporation, Switzerland) was used. The luciferase activity (%) of the test compounds (1 to 30 μmol/L) was calculated when the luciferase activity of rosiglitazone (3 to 10 μmol/L) is 100% and the luciferase activity in the absence of the test compound is 0%. The 50% effective concentration of the test compound (EC50, 50% effect concentration) was calculated by using SAS Preclinical Package Ver 5.0 (trade name, manufactured by SAS institute Japan Co., Tokyo, Japan), which is a statistical analysis program.
EC50 values of these compounds are described in Table 2. […] Under the same condition, the PPARγ activation activity of telmisartan, i.e., EC50, was 1 to 5 μM.

The pEC50 is the EC50 on a negative log10 scale, so that one unit is a factor of ten. Read a high pEC50 as a low EC50. As to `CCCCc1nc(C2CC2)n(-c2ncc(OCC)cn2)c(=O)c1Cc1ccc(-c2ccccc2-c2noc(=O)[nH]2)nc1` [Example 23, 3-{2-{5-{[4-butyl-2-cyclopropyl-1-(5-ethoxypyrimidin-2-yl)-6-oxo-1,6-dihydropyrimidin-5-yl]methyl}pyridin-2-yl}phenyl}-1,2,4-oxadiazol-5(4H)-one], the negative-log EC50 (pEC50) was 6.12. Consider `CCCCc1nc(C(C)C)n(-c2ncc(OCC)cn2)c(=O)c1Cc1ccc(-c2ccccc2-c2noc(=O)[nH]2)nc1` [Example 21, 3-{2-{5-{[4-butyl-1-(5-ethoxypyrimidin-2-yl)-2-isopropyl-6-oxo-1,6-dihydropyrimidin-5-yl]methyl}pyridin-2-yl}phenyl}-1,2,4-oxadiazol-5(4H)-one], for which the pEC50 is 6.35.
